# In US9605064B2, “Methods and compositions for treatment of skin disorders” (AbbVie Biotechnology Ltd, priority 2006, dated 2017):
# Test system: patients with moderate to severe chronic plaque psoriasis
# Assay: PASI response, Phase II 12-week placebo-controlled trial with 48-week extension
# Assay type: in vivo, human
# Settings: for PASI 50 / PASI 90 / PASI 100: after 60 weeks of 40 mg eow; for patients with PASI<50 response, qualified for dosage escalation to weekly: on or after Week 24; for Number of Patients Who Qualified for Dosage Escalation: placebo/adalimumab 40 mg eow (n = 18)
# Description: Efficacy outcome measures included PASI and PGA.
# The two primary clinical outcome measures used in this study were the psoriasis area and severity index (PASI) and the physician's global assessment (PGA). PASI improvement of greater than or equal to 75% (used as an endpoint in psoriasis clinical trials) at week 12 was the primary efficacy outcome measure for this study. PASI is a composite index indicating severity for three main signs of psoriatic plaques (erythema, scaling, and thickness), weighted by the amount of coverage of these plaques in four main body areas, i.e., head, trunk, upper extremities, and lower extremities. PASI scores, which range from 0-72, with higher scores indicating greater severity, were assessed at screening, baseline, week 1, week 2, week 4, week 8, week 12/early termination, and follow-up.
# Skin and safety outcomes were assessed up to Week 60.
# Analytical methods included the following: • Analyses of clinical data were performed on a modified intention-to-treat population (ITT). […] Patients whose dosages were increased on or after Week 24 were considered non-responders; • Patients with similar percentage PASI improvement across treatment arms were pooled into four strata: PASI<50, PASI 50-74, PASI 75-99, and PASI 100; and • Week-60 distribution of DLQI scores, mean DLQI scores, and mean change in DLQI from Week 0-60 were calculated within each stratum.
# Frequently used as an endpoint in psoriasis clinical trials, the PASI [25] was the primary efficacy outcome in this trial. PASI is a composite index indicating the severity of the three main signs of psoriatic plaques (i.e., erythema, scaling, and thickness) and is weighted by the amount of coverage of these plaques in the four main body areas (head, trunk, upper extremities, and lower extremities). PASI scores range from 0-72, with higher scores indicating greater disease severity. PASI was assessed at screening and baseline, at Weeks 1, 2, 4, 8, and 12/Early Termination, and at the final follow-up visit.
# At week 12, placebo patients received an 80-mg loading dose, then 40 mg every other week. […] Patients who receive the rescue therapy were considered non-responders in this analysis.
# [1] = Week 60, adalimumab 40 mg weekly, modified ITT, NRI
# [2] = Week 60, placebo/adalimumab 40 mg eow (adalimumab from Week 12), modified ITT, NRI
# [3] = baseline PASI ≧10 and DLQI >10, 40 mg eow, Week 12
# [4] = baseline PASI ≧10 and DLQI >10, 40 mg eow, Week 24
# [5] = baseline PASI ≧10 and DLQI >10, 40 mg eow, Week 36
# [6] = baseline PASI ≧10 and DLQI >10, 40 mg eow, Week 60
# [7] = baseline PASI ≧10 and DLQI >10, 40 mg weekly, Week 12
# [8] = baseline PASI ≧10 and DLQI >10, 40 mg weekly, Week 24
# [9] = baseline PASI ≧10 and DLQI >10, 40 mg weekly, Week 36
# [10] = baseline PASI ≧10 and DLQI >10, 40 mg weekly, Week 60
# [11] = baseline PASI ≧10 and DLQI >10, placebo/adalimumab 40 mg eow, Week 24
# [12] = baseline PASI ≧10 and DLQI >10, placebo/adalimumab 40 mg eow, Week 36
# [13] = baseline PASI ≧10 and DLQI >10, placebo/adalimumab 40 mg eow, Week 60
# [14] = dosage escalation group (eow to 40 mg weekly, n = 30), Week 60
# [15] = placebo/adalimumab 40 mg eow, Week 60, modified ITT, NRI
# [16] = weekly group, week 60, observed analysis
substance,measurement,setting,value
"Adalimumab: a human anti-TNF mAb, described in U.S. Pat. No. 6,090,382 as D2E7 (HUMIRA, Abbott Laboratories)",PASI 50 (% patients),[1],66%
same,Percentage of patients who achieved PASI 75,[1],64%
same,Percentage of patients who achieved PASI 90,[1],48%
same,Percentage of patients who achieved PASI 100,"Week 60, placebo/adalimumab 40 mg eow (adalimumab from Week 12), NRI",19%
same,PASI 50 (% patients),[2],64%
same,Percentage of patients who achieved PASI 75,[2],45%
same,Percentage of patients who achieved PASI 90,[2],40%
same,PASI 75 response rate,[3],69 % of Patients
same,PASI 90 response rate,[3],39 % of Patients
same,PASI 75 response rate,[4],77 % of Patients
same,PASI 90 response rate,[4],54 % of Patients
same,PASI 75 response rate,[5],73 % of Patients
same,PASI 90 response rate,[5],58 % of Patients
same,PASI 75 response rate,[6],65 % of Patients
same,PASI 90 response rate,[6],42 % of Patients
same,PASI 75 response rate,[7],74 % of Patients
same,PASI 90 response rate,[7],61 % of Patients
same,PASI 75 response rate,[8],78 % of Patients
same,PASI 90 response rate,[8],70 % of Patients
same,PASI 75 response rate,[9],74 % of Patients
same,PASI 90 response rate,[9],65 % of Patients
same,PASI 75 response rate,[10],65 % of Patients
same,PASI 90 response rate,[10],48 % of Patients
same,PASI 75 response rate,[11],50 % of Patients
same,PASI 90 response rate,[11],28 % of Patients
same,PASI 75 response rate,[12],50 % of Patients
same,PASI 90 response rate,[12],50 % of Patients
same,PASI 75 response rate,[13],44 % of Patients
same,PASI 90 response rate,[13],39 % of Patients
same,PASI 50 response rate,[14],40%
same,PASI 75 response rate,[14],~20%
same,PASI 90 response rate,[14],0%
same,PASI 75 response rate,"dosage escalation group (eow to 40 mg weekly, n = 30), Week 60, listed as adalimumab",17%
same,PASI 50 response,"eow arm, Week 24",73
same,PASI 75 response rate,"no prior use, 40 mg eow, Week 24",65 % Patients
same,PASI 75 response rate,"no prior use, 40 mg eow, Week 60",48 % Patients
same,PASI 75 response rate,"no prior use, 40 mg weekly, Week 24",76 % Patients
same,PASI 75 response rate,"no prior use, 40 mg weekly, Week 60",64 % Patients
same,PASI 50,no prior use,65%
same,PASI 90,no prior use,30%
same,PASI 100,no prior use,17%
same,PASI 75 response rate,"no prior use, placebo/adalimumab 40 mg eow, Week 24",56 % Patients
same,PASI 75 response rate,"no prior use, placebo/adalimumab 40 mg eow, Week 60",40 % Patients
same,"patients with PASI<50 response, qualified for dosage escalation to weekly",of the 45 patients in adalimumab eow group,12 patients
same,"patients with PASI<50 response, qualified for dosage escalation to weekly",of the 47 patients in placebo/adalimumab eow group,18 patients
same,patients with PASI≧75 after dose escalation,"original adalimumab 40 mg every other week arm (two out of nine), week 60",22%
same,patients with PASI≧75 after dose escalation,"original placebo/adalimumab 40 mg every other week arm (two out of thirteen), week 60",15%
same,Number of Patients Who Qualified for Dosage Escalation,Week 24,10
same,Number of Patients Who Qualified for Dosage Escalation,Week 28,2
same,Number of Patients Who Qualified for Dosage Escalation,Week 32,2
same,Number of Patients Who Qualified for Dosage Escalation,Week 44,1
same,Number of Patients Who Qualified for Dosage Escalation,Week 52,3
same,Number of Patients Who Qualified for Dosage Escalation,Week 60,0
same,Overall PASI 75 response rate,"placebo/adalimumab 40 mg eow, Week 24, modified ITT, NRI",55 % of Patients
same,Overall PASI 75 response rate,"placebo/adalimumab 40 mg eow, Week 36, modified ITT, NRI",62 % of Patients
same,Overall PASI 75 response rate,[15],45 % of Patients
same,PASI 50 response rate,[15],57 % Patients
same,PASI 90 response rate,[15],40 % Patients
same,PASI 100 response rate,[15],19 % Patients
same,PASI 50 response,"placebo/eow arm, Week 24",77
same,PASI 50,prior biologic use,63%
same,PASI 90,prior biologic use,38%
same,PASI 100,prior biologic use,13%
same,PASI 75 response rate,"prior biological use, 40 mg eow, Week 24",50 % Patients
same,PASI 75 response rate,"prior biological use, 40 mg eow, Week 60",63 % Patients
same,PASI 75 response rate,"prior biological use, 40 mg weekly, Week 24",67 % Patients
same,PASI 75 response rate,"prior biological use, 40 mg weekly, Week 60",78 % Patients
same,PASI 75 response rate,"prior biological use, placebo/adalimumab 40 mg eow, Week 24",63 % Patients
same,PASI 75 response rate,"prior biological use, placebo/adalimumab 40 mg eow, Week 60",63 % Patients
same,PASI 75 response rate,"prior systemic use, 40 mg eow, Week 24",68 % Patients
same,PASI 75 response rate,"prior systemic use, 40 mg eow, Week 60",68 % Patients
same,PASI 75 response rate,"prior systemic use, 40 mg weekly, Week 24",73 % Patients
same,PASI 75 response rate,"prior systemic use, 40 mg weekly, Week 60",64 % Patients
same,PASI 50,prior systemic use,68%
same,PASI 90,prior systemic use,37%
same,PASI 100,prior systemic use,11%
same,PASI 75 response rate,"prior systemic use, placebo/adalimumab 40 mg eow, Week 24",47 % Patients
same,PASI 75 response rate,"prior systemic use, placebo/adalimumab 40 mg eow, Week 60",41 % Patients
same,PASI 50 response,"weekly arm, Week 24",80
same,PASI 75-99 response rate,[16],38
same,PASI 100 response rate,[16],26
